Test results taken from patent US20190257817A1, “METHODS AND SYSTEMS FOR SCREENING CANDIDATE COMPOUNDS FOR THEIR POTENTIAL TO CAUSE SYSTEMIC OR HEPATIC TOXICITY” (Qualyst Transporter Solutions, LLC, priority 2016, published 2019).
“Also recorded” adds a separate entry of the source. Like-named read-outs stand apart in the source and are kept apart here.

Assays:
[1] = cited from earlier work; for clinical toxicity: clinic; for ALT elevations≥3× upper limit normal: large clinical trials
SCHH [2] = assay: Feasibility study: BA toxicity potency, Ambrisentan vs Sitaxsentan; assay type: cell-based, human; conditions: 2-200 uM test compound
Text: Generally, the presently disclosed methods can in some embodiments comprise culturing SCHH with a concentration range of a bile acid (e.g. DCA), or bile acid pool to identify the toxicity profile of the bile acid (such as by measurement of ATP and/or LDH; dotted line in FIGS. 7 and 8). In a parallel study, SCHH can be exposed to a concentration range of DCA or combination of bile acids in the presence of a potential cholestatic hepatotoxicant.

[3] = cited from earlier work
FXR = molecular target: T1, FXR (Homo sapiens, UniProt Q96RI1); assay: FXR antagonism: OSTβ mRNA induction in SCHH co-treated with CDCA and CsA; assay type: cell-based
T1 construct: endogenous in cells; host or cells: SCHH (sandwich-cultured hepatocytes from donors)
T1 sequence (Q96RI1 1-486): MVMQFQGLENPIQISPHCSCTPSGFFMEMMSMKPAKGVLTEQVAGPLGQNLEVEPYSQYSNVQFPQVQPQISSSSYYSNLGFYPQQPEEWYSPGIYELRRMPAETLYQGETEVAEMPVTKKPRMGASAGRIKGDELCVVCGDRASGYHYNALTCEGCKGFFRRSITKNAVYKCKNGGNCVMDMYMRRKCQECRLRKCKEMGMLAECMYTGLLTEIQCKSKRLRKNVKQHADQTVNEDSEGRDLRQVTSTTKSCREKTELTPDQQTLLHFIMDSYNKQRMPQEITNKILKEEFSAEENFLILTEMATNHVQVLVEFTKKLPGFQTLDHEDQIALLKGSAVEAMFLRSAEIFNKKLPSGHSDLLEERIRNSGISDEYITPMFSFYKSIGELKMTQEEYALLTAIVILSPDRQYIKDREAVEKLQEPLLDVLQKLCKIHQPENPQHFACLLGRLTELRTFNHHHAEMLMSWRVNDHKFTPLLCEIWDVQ
Text: Alternatively, the reduction of OSTβ mRNA content may be explained by cytotoxicity under the conditions evaluated.

SCHH [4] = assay: Bile acids at increasing concentrations in SCHH over 24 hours (ATP, LDH); assay type: cell-based, human; conditions: 24 hr exposure
Description: Bile acids GCA, GCDCA and GDCA were evaluated at increasing concentrations in SCHH over 24 hours. ATP (FIG. 9) and LDH (FIG. 10) content were measured.

[5] = system: sandwich-cultured human hepatocytes; assay: Bile acid pool toxicity profile shift in SCHH, ApoTox-Glo Triplex Assay; assay type: cell-based; conditions: 5 mM and 11 mM glucose
Description: Utilizing similar methodology from the previous sections, hepatotoxicity was evaluated with ApoTox-Glo™ Triplex Assay.
The effects of the test compounds were evaluated in the presence of the individual bile acids and in the presence of a bile acid pool. The effects were compared to bile acid treatment alone. DMSO treatment alone was used as a comparator for hepatotoxicity. Hepatotoxicity was evaluated with ApoTox-Glo™ Triplex Assay, which assesses viability, cytotoxicity and apoptosis.
A bile acid mixture was evaluated, and was composed of 4 different bile acids maintained at a physiological relevant ratio of each bile acid. […] Individual bile acids were dosed using the concentration they represent in the mixture.
A treatment group without free fatty acids was used as a control. Hepatotoxicity was evaluated with ApoTox-Glo™ Triplex Assay which assessed viability, cytotoxicity and apoptosis.

NTCP = molecular target: T2, NTCP (Homo sapiens, UniProt Q14973); assay: In vitro assays of NTCP inhibition
T2 sequence (Q14973 1-349): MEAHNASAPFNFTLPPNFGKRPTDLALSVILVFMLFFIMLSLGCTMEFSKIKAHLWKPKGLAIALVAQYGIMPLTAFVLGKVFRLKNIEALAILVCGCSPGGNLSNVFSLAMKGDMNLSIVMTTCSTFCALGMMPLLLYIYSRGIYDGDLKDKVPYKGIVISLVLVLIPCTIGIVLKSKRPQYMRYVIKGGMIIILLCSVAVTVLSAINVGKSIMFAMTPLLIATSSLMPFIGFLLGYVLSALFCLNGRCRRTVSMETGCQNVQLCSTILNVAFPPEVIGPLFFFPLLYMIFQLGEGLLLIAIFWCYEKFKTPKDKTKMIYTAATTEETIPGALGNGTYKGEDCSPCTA

BSEP = BSEP (Homo sapiens, UniProt O95342); assay: In vitro assay of BSEP effect
Sequence of BSEP (O95342 whole entry, species assumed): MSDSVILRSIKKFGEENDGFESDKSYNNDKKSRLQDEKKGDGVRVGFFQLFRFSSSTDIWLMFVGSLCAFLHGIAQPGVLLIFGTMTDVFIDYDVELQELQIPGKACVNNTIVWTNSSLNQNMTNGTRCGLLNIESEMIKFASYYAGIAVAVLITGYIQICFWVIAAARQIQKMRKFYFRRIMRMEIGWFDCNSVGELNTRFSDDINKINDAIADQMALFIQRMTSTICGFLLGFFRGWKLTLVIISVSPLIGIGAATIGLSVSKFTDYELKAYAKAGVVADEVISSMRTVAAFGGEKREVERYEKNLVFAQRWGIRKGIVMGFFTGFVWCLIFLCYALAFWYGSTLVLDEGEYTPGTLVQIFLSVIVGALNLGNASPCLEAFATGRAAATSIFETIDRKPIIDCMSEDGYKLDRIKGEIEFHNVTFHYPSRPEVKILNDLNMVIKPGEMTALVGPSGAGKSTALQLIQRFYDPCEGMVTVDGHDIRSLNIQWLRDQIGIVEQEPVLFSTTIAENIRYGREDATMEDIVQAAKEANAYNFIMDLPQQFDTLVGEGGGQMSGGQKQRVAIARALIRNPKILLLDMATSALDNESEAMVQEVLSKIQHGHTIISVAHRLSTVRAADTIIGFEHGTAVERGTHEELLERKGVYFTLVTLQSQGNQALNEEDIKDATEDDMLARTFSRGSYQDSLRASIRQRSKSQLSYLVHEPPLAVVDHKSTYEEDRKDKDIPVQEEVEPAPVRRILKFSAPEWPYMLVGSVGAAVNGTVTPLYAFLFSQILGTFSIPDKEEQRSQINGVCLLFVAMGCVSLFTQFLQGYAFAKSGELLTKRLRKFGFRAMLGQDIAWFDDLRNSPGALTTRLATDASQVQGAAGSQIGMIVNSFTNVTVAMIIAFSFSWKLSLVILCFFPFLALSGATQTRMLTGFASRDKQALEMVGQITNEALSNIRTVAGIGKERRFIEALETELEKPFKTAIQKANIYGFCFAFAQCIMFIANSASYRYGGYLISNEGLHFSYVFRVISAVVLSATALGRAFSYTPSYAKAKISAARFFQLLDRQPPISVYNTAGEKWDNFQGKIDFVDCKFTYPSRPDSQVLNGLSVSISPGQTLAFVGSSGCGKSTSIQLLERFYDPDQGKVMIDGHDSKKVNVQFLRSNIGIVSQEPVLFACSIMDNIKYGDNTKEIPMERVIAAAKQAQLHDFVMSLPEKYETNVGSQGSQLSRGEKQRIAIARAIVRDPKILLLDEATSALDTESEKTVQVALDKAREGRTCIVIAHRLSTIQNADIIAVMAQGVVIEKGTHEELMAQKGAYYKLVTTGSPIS

SCHH [6] = assay: Cholestasis hepatotoxicity screening assay in SCHH (LDH leakage, ATP content), standard vs sensitization medium; assay type: cell-based; conditions: human, 24 h, 100 μM
Text: As discussed above, hepatocytes become susceptible to bile acid toxicity (e.g. cholestatic hepatotoxicity) when drug exposure inhibits bile acid efflux routes (e.g. BSEP and/or MRP3/4) and 1) prevents (antagonize) FXR from sensing the rising intracellular concentrations of bile acids; or 2) inhibits bile acid efflux through OSTα/β; or 3) a combination of both. […] Briefly, hepatocytes were established in a sandwich-cultured configuration for four days. […] Drug exposures ranged from about 8× to about 16× Cmax to account for concentrating effect that can occur in the portal vein following oral administration of test compounds. Following 24 hours, LDH leakage and ATP content was evaluated utilizing commercially available assays.
The sensitization medium included free fatty acids and a physiological mixture of primary and secondary bile acids, described above (GCDCA, GCA, DCA, and GDCA) at an adequate concentration (250 μM) that minimized toxicity but challenged the hepatocytes bile acid homeostasis mechanism.

[7] = conditions used to examine FXR antagonism

For COC(c1ccccc1)(c1ccccc1)[C@H](Oc1nc(C)cc(C)n1)C(=O)O [Ambrisentan], the clinical toxicity [1] is listed as “Well tolerated; no toxicity”, the BA toxicity potency (SCHH [2]) is listed as “No change in BA toxicity potency” and the Cmax ([3]; in vivo) is listed as 3 µM.
With COc1cccc(Cn2cc(C(=O)Nc3ccc(C)c(S(=O)(=O)N4CCOCC4)c3)c(-c3ccc(C)cc3)n2)c1 [DY268] the “induction of OSTβ mRNA content” value (FXR; SCHH co-treated with CDCA and CsA, troglitazone 75-100 μM) was “A similar effect was observed”.
In the case of C[C@H](CCC(=O)NCC(=O)O)[C@H]1CC[C@H]2[C@@H]3[C@H](O)C[C@@H]4C[C@H](O)CC[C@]4(C)[C@H]3C[C@H](O)[C@]12C [GCA], the “cytotoxicity of bile acid” value (SCHH [4]; increasing concentrations, ATP and LDH) is reported as “not cytotoxic”.
With C[C@H](CCC(=O)NCC(=O)O)[C@H]1CC[C@H]2[C@@H]3[C@H](O)C[C@@H]4C[C@H](O)CC[C@]4(C)[C@H]3CC[C@]12C [GCDCA] the “relative toxicity in the ATP assay” value (SCHH [4]) was “equaled GDCA” and the “relative toxicity in the LDH assay” value (SCHH [4]) was “GDCA was greater than GCDCA”.
In the case of C[C@H](CCC(=O)NCC(=O)O)[C@H]1CC[C@H]2[C@@H]3CC[C@@H]4C[C@H](O)CC[C@]4(C)[C@H]3C[C@H](O)[C@]12C [GDCA], the “relative toxicity in the ATP assay” value (SCHH [4]) is reported as “GCDCA equaled GDCA” and the “relative toxicity in the LDH assay” value (SCHH [4]) is reported as “greater than GCDCA”.
For Cc1cc2c(cc1CC(=O)c1sccc1S(=O)(=O)Nc1onc(C)c1Cl)OCO2 [Sitaxsentan], the “effect on hepatotoxicity of the bile acid pool” value [5] is given as “did not alter the hepatotoxicity of the bile acid pool”, the clinical toxicity [1] is given as “Toxicity in clinic after 5 months; liver likely not primary site of toxicity; also recorded: No toxicity @ 3 months” and the NTCP effect (NTCP) is given as “potent/efficacious NTCP inhibitor”. For the same compound, the BSEP effect (BSEP) was “no BSEP effect”, the BA toxicity potency (SCHH [2]) was “Decreased BA toxicity potency” and the Cmax ([3]; in vivo) was 23.5 µM.
For CCc1ccc(CCOc2ccc(CC3SC(=O)NC3=O)cc2)nc1 (stereo not shown) [pioglitazone], the “ALT elevations≥3× upper limit normal” value [1] is given as “not different from placebo recipients” and the Cmax ([3]; Dawson et al. 2012) is given as 2.9 µM.
For CN(CCOc1ccc(CC2SC(=O)NC2=O)cc1)c1ccccn1 (stereo not shown) [rosiglitazone], the “ALT elevations≥3× upper limit normal” value [1] is given as “not different from placebo recipients” and the Cmax ([3]; Dawson et al. 2012) is given as 1 µM.
For Cc1c(C)c2c(c(C)c1O)CCC(C)(COc1ccc(CC3SC(=O)NC3=O)cc1)O2 (stereo not shown) [troglitazone], the ATP content (FXR; [7]) was “no significant decreases of ATP content”, the LDH leakage (FXR; [7]) was “no significant decreases of ATP content or increases of LDH leakage” and the ATP content (SCHH [6]) was 0.9 % of control. The LDH leakage (SCHH [6]) was 863 % of control, the LDH secretion (SCHH [6]) was 490 % of control and the “loss of ATP content” value (SCHH [6]) was > 99 % of control.
